Source: PubChem BioAssay (NCI)
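The concentration for 50% growth inhibition is given as GI50. TGI: total growth inhibition.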

What was measured:
Test in all cases: inhibition of tumour cell growth, NCI panel, 384-well format
[1] = system: CCRF-CEM leukemia
[2] = system: MOLT-4 leukemia
[3] = system: SN12C renal
[4] = system: COLO 205 colon
[5] = system: NCI-H226 lung
[6] = system: NCI-H23 lung
[7] = system: KM12 colon
[8] = system: MDA-MB-468 breast
[9] = system: RXF 393 renal
[10] = system: NCI-H522 lung
[11] = system: DU-145 prostate
[12] = system: ACHN renal
[13] = system: NCI/ADR-RES ovarian
[14] = system: NCI-H460 NSCLC
[15] = system: OVCAR-3 ovarian
[16] = system: OVCAR-8 ovarian
[17] = system: HCT-116 colon
[18] = system: HCC-2998 colon
[19] = system: T-47D breast
[20] = system: MDA-MB-435 melanoma
[21] = system: HL-60(TB) leukemia
[22] = system: SK-MEL-5 melanoma
[23] = system: RPMI-8226 leukemia
[24] = system: SF-295 CNS
[25] = system: NCI-H322M lung
[26] = system: CAKI-1 renal
[27] = system: SW-620 colon
[28] = system: MDA-MB-231 breast
[29] = system: LOX IMVI melanoma
[30] = system: PC-3 prostate
[31] = system: BT-549 breast
[32] = system: HCT-15 colon
[33] = system: UACC-62 melanoma
[34] = system: HOP-62 NSCLC
[35] = system: SR leukemia
[36] = system: A498 renal
[37] = system: U251 glioblastoma
[38] = system: SF-539 CNS
[39] = system: HOP-92 NSCLC
[40] = system: OVCAR-4 ovarian
[41] = system: SF-268 CNS
[42] = system: A549 NSCLC
[43] = system: 786-0 renal
[44] = system: M14 melanoma
[45] = system: IGROV1 ovarian
[46] = system: K-562 leukemia
[47] = system: SK-MEL-28 melanoma
[48] = system: SK-OV-3 ovarian
[49] = system: MCF7 breast
[50] = system: OVCAR-5 ovarian
[51] = system: TK-10 renal
[52] = system: UACC-257 melanoma
[53] = system: SK-MEL-2 melanoma
[54] = system: UO-31 renal
[55] = system: MALME-3M melanoma
[56] = system: HT29 colon
[57] = system: SNB-19 CNS

Cc1cc(C(=O)NC(C)(C)C)cc(C#Cc2ccc3c4c(oc3c2)C(C)(C)c2cc(NS(C)(=O)=O)ccc2C4=O)n1
GI50 [1]: 1260 nM | TGI [1]: 2830 nM | GI50 [2]: 565 nM | TGI [2]: 1700 nM | GI50 [3]: 934 nM | TGI [3]: > 100000 nM | GI50 [4]: 1280 nM | TGI [4]: 3420 nM | GI50 [5]: 1310 nM | TGI [5]: 5410 nM | GI50 [6]: 602 nM | TGI [6]: 2630 nM | TGI [7]: 1020 nM | GI50 [8]: 985 nM | TGI [8]: 2850 nM | GI50 [9]: 188 nM | TGI [9]: 410 nM | GI50 [10]: 813 nM | TGI [10]: 4130 nM | GI50 [11]: 1480 nM | TGI [11]: 8910 nM | GI50 [12]: 815 nM | TGI [12]: 8300 nM | GI50 [13]: 1590 nM | TGI [13]: 4170 nM | GI50 [14]: 1180 nM | TGI [14]: 3020 nM | GI50 [15]: 1460 nM | TGI [15]: 4420 nM | GI50 [16]: 1810 nM | TGI [16]: 6230 nM | GI50 [17]: 1020 nM | TGI [17]: > 100000 nM | GI50 [18]: 1730 nM | TGI [18]: 8550 nM | GI50 [19]: 631 nM | TGI [19]: 2270 nM | GI50 [20]: 410 nM | TGI [20]: 2030 nM | GI50 [21]: 591 nM | TGI [21]: 1780 nM | GI50 [22]: 913 nM | TGI [22]: 2160 nM | GI50 [23]: 168 nM | TGI [23]: 410 nM | GI50 [24]: 1330 nM | TGI [24]: 3880 nM | GI50 [25]: 2670 nM | TGI [25]: > 100000 nM | GI50 [26]: 549 nM | TGI [26]: 4110 nM | GI50 [27]: 1260 nM | TGI [27]: 3540 nM | GI50 [28]: 3450 nM | TGI [28]: > 100000 nM | GI50 [29]: 3200 nM | TGI [29]: 7420 nM | GI50 [30]: 2470 nM | TGI [30]: 9210 nM | GI50 [31]: 1150 nM | TGI [31]: 4820 nM | GI50 [32]: 862 nM | TGI [32]: > 100000 nM | GI50 [33]: 673 nM | TGI [33]: 3960 nM | GI50 [34]: 2130 nM | TGI [34]: 6760 nM | GI50 [35]: 198 nM | TGI [35]: 420 nM | GI50 [36]: 833 nM | TGI [36]: 4660 nM | GI50 [37]: 1890 nM | TGI [37]: > 100000 nM | GI50 [38]: 1160 nM | TGI [38]: 5930 nM | GI50 [39]: 198 nM | TGI [39]: 980 nM | GI50 [40]: 1340 nM | TGI [40]: 6330 nM | GI50 [41]: 2170 nM | TGI [41]: > 100000 nM | GI50 [42]: 2270 nM | TGI [42]: > 100000 nM | GI50 [43]: 642 nM | TGI [43]: 2200 nM | GI50 [44]: 1080 nM | TGI [44]: 3340 nM | GI50 [45]: 2150 nM | TGI [45]: > 100000 nM | GI50 [46]: 1310 nM | TGI [46]: > 100000 nM | GI50 [47]: 971 nM | TGI [47]: 5510 nM | GI50 [48]: 1930 nM | TGI [48]: 7040 nM | GI50 [49]: 985 nM | TGI [49]: 4350 nM | GI50 [50]: 2080 nM | TGI [50]: 9850 nM | GI50 [51]: 1800 nM | TGI [51]: 29200 nM | GI50 [52]: 977 nM | TGI [52]: 3070 nM | GI50 [53]: 496 nM | TGI [53]: 3100 nM | GI50 [54]: 365 nM | TGI [54]: 1710 nM | GI50 [55]: 695 nM | TGI [55]: 3010 nM | GI50 [56]: 774 nM | TGI [56]: 3060 nM | GI50 [57]: 2920 nM | TGI [57]: > 100000 nM
